Assay results: the CheMixHub viscosity set
± gives the uncertainty stated by the source.

Assay: xn = mol fraction of the nth substance listed

## COC(=O)OC + CCCCO
293.15 K, 101 kPa, x1 = 0.05212
  viscosity: 2.427 mPa·s
293.15 K, 101 kPa, x1 = 0.09994
  viscosity: 2.071 mPa·s
293.15 K, 101 kPa, x1 = 0.191
  viscosity: 1.611 mPa·s
293.15 K, 101 kPa, x1 = 0.2904
  viscosity: 1.291 mPa·s
293.15 K, 101 kPa, x1 = 0.4109
  viscosity: 1.029 mPa·s
293.15 K, 101 kPa, x1 = 0.4555
  viscosity: 0.957 mPa·s
293.15 K, 101 kPa, x1 = 0.6133
  viscosity: 0.775 mPa·s
293.15 K, 101 kPa, x1 = 0.7008
  viscosity: 0.71 mPa·s
293.15 K, 101 kPa, x1 = 0.8063
  viscosity: 0.656 mPa·s
293.15 K, 101 kPa, x1 = 0.907
  viscosity: 0.63 mPa·s
293.15 K, 101 kPa, x1 = 0.9512
  viscosity: 0.636 mPa·s
293.15 K, 101.3 kPa, x1 = 0.0518
  viscosity: 2.461 ± 0.11 mPa·s
293.15 K, 101.3 kPa, x1 = 0.0975
  viscosity: 2.119 ± 0.097 mPa·s
293.15 K, 101.3 kPa, x1 = 0.1961
  viscosity: 1.586 ± 0.074 mPa·s
293.15 K, 101.3 kPa, x1 = 0.3064
  viscosity: 1.218 ± 0.059 mPa·s
293.15 K, 101.3 kPa, x1 = 0.4108
  viscosity: 1.023 ± 0.05 mPa·s
293.15 K, 101.3 kPa, x1 = 0.4769
  viscosity: 0.929 ± 0.046 mPa·s
293.15 K, 101.3 kPa, x1 = 0.6101
  viscosity: 0.794 ± 0.041 mPa·s
293.15 K, 101.3 kPa, x1 = 0.7043
  viscosity: 0.719 ± 0.037 mPa·s
293.15 K, 101.3 kPa, x1 = 0.8043
  viscosity: 0.644 ± 0.034 mPa·s
293.15 K, 101.3 kPa, x1 = 0.9052
  viscosity: 0.607 ± 0.033 mPa·s
293.15 K, 101.3 kPa, x1 = 0.9508
  viscosity: 0.605 ± 0.032 mPa·s
298.15 K, 101.3 kPa, x1 = 0.0527
  viscosity: 2.192 ± 0.1 mPa·s
298.15 K, 101.3 kPa, x1 = 0.1009
  viscosity: 1.877 ± 0.087 mPa·s
298.15 K, 101.3 kPa, x1 = 0.2002
  viscosity: 1.411 ± 0.067 mPa·s
298.15 K, 101.3 kPa, x1 = 0.2986
  viscosity: 1.127 ± 0.055 mPa·s
298.15 K, 101.3 kPa, x1 = 0.3974
  viscosity: 0.952 ± 0.047 mPa·s
298.15 K, 101.3 kPa, x1 = 0.5039
  viscosity: 0.831 ± 0.042 mPa·s
298.15 K, 101.3 kPa, x1 = 0.6008
  viscosity: 0.748 ± 0.039 mPa·s
298.15 K, 101.3 kPa, x1 = 0.7028
  viscosity: 0.673 ± 0.035 mPa·s
298.15 K, 101.3 kPa, x1 = 0.8011
  viscosity: 0.611 ± 0.033 mPa·s
298.15 K, 101.3 kPa, x1 = 0.8965
  viscosity: 0.572 ± 0.031 mPa·s
298.15 K, 101.3 kPa, x1 = 0.9503
  viscosity: 0.569 ± 0.031 mPa·s
303.15 K, 101 kPa, x1 = 0.0494
  viscosity: 1.938 mPa·s
303.15 K, 101 kPa, x1 = 0.1058
  viscosity: 1.648 mPa·s
303.15 K, 101 kPa, x1 = 0.2154
  viscosity: 1.256 mPa·s
303.15 K, 101 kPa, x1 = 0.2915
  viscosity: 1.077 mPa·s
303.15 K, 101 kPa, x1 = 0.4086
  viscosity: 0.882 mPa·s
303.15 K, 101 kPa, x1 = 0.5007
  viscosity: 0.769 mPa·s
303.15 K, 101 kPa, x1 = 0.5847
  viscosity: 0.697 mPa·s
303.15 K, 101 kPa, x1 = 0.7003
  viscosity: 0.622 mPa·s
303.15 K, 101 kPa, x1 = 0.798
  viscosity: 0.581 mPa·s
303.15 K, 101 kPa, x1 = 0.9065
  viscosity: 0.553 mPa·s
303.15 K, 101 kPa, x1 = 0.9587
  viscosity: 0.551 mPa·s
303.15 K, 101.3 kPa, x1 = 0.0249
  viscosity: 2.078 ± 0.095 mPa·s
303.15 K, 101.3 kPa, x1 = 0.096
  viscosity: 1.666 ± 0.078 mPa·s
303.15 K, 101.3 kPa, x1 = 0.1911
  viscosity: 1.304 ± 0.062 mPa·s
303.15 K, 101.3 kPa, x1 = 0.2998
  viscosity: 1.046 ± 0.051 mPa·s
303.15 K, 101.3 kPa, x1 = 0.3877
  viscosity: 0.903 ± 0.045 mPa·s
303.15 K, 101.3 kPa, x1 = 0.4799
  viscosity: 0.787 ± 0.04 mPa·s
303.15 K, 101.3 kPa, x1 = 0.5865
  viscosity: 0.681 ± 0.036 mPa·s
303.15 K, 101.3 kPa, x1 = 0.6907
  viscosity: 0.608 ± 0.033 mPa·s
303.15 K, 101.3 kPa, x1 = 0.7931
  viscosity: 0.564 ± 0.031 mPa·s
303.15 K, 101.3 kPa, x1 = 0.8925
  viscosity: 0.547 ± 0.03 mPa·s
303.15 K, 101.3 kPa, x1 = 0.9464
  viscosity: 0.542 ± 0.03 mPa·s
313.15 K, 101 kPa, x1 = 0.04725
  viscosity: 1.542 mPa·s
313.15 K, 101 kPa, x1 = 0.1216
  viscosity: 1.252 mPa·s
313.15 K, 101 kPa, x1 = 0.2016
  viscosity: 1.027 mPa·s
313.15 K, 101 kPa, x1 = 0.2876
  viscosity: 0.857 mPa·s
313.15 K, 101 kPa, x1 = 0.3956
  viscosity: 0.712 mPa·s
313.15 K, 101 kPa, x1 = 0.414
  viscosity: 0.693 mPa·s
313.15 K, 101 kPa, x1 = 0.6043
  viscosity: 0.552 mPa·s
313.15 K, 101 kPa, x1 = 0.6975
  viscosity: 0.511 mPa·s
313.15 K, 101 kPa, x1 = 0.8019
  viscosity: 0.484 mPa·s
313.15 K, 101 kPa, x1 = 0.9062
  viscosity: 0.477 mPa·s
313.15 K, 101 kPa, x1 = 0.9368
  viscosity: 0.479 mPa·s
313.15 K, 101.3 kPa, x1 = 0.0499
  viscosity: 1.536 ± 0.072 mPa·s
313.15 K, 101.3 kPa, x1 = 0.0998
  viscosity: 1.351 ± 0.064 mPa·s
313.15 K, 101.3 kPa, x1 = 0.2234
  viscosity: 1.018 ± 0.05 mPa·s
313.15 K, 101.3 kPa, x1 = 0.3
  viscosity: 0.88 ± 0.044 mPa·s
313.15 K, 101.3 kPa, x1 = 0.3991
  viscosity: 0.752 ± 0.039 mPa·s
313.15 K, 101.3 kPa, x1 = 0.5054
  viscosity: 0.662 ± 0.035 mPa·s
313.15 K, 101.3 kPa, x1 = 0.603
  viscosity: 0.598 ± 0.032 mPa·s
313.15 K, 101.3 kPa, x1 = 0.6904
  viscosity: 0.557 ± 0.03 mPa·s
313.15 K, 101.3 kPa, x1 = 0.8009
  viscosity: 0.52 ± 0.029 mPa·s
313.15 K, 101.3 kPa, x1 = 0.9014
  viscosity: 0.497 ± 0.028 mPa·s
313.15 K, 101.3 kPa, x1 = 0.9471
  viscosity: 0.494 ± 0.028 mPa·s
